Data taken from patent US20240109877A1, “PYRIMIDINES FOR DEGRADING BRUTON'S TYROSINE KINASE” (AbbVie Inc., priority 2022, published 2024).

Tests used:
[1] = molecular target: His-tagged Cereblon/DDB1 complex (Homo sapiens (Human), UniProt Q96SW2); assay: Cereblon Binding Assay (AlphaLISA Human Cereblon Binding Kit, competition); conditions: 10 μM top dose, biotin-labeled ligand competition; read-out: CRBN IC50
Procedure: Cereblon binding was measured in vitro using an AlphaLISA® Human Cereblon Binding Kit (PerkinElmer, Waltham, MA) according to the manufacturer's protocol (“Alpha” refers to Amplified Luminescent Proximity Homogeneous Assay). In this assay, donor beads and acceptor beads come into proximity through ligand binding to CRBN protein. Excitation of the donor beads provokes the release of singlet oxygen that triggers a cascade of energy transfer reactions to the acceptor beads, resulting in a sharp peak in light emission at 615 nm.
Specifically, nickel chelate acceptor beads (PerkinElmer AL108M) were used to capture a 6XHIS-tagged CRBN protein, and streptavidin-coated donor beads (PerkinElmer 6760002) were used to capture 50 nM biotinylated ligand. Each well included the following: sample or control; HIS-tagged CRBN protein; biotinylated ligand; nickel chelate acceptor beads; and streptavidin donor beads.
Competition Assay: Test compounds in 100% dimethyl sulfoxide were plated onto white, low volume 384 well plates (PerkinElmer Proxiplate 384 plus # 6008289) using an Labcyte Echo acoustic dispenser, in an 11-point dose curve and 3-fold dilution scheme. […] Plates were incubated for 30 minutes at room temperature.
Detection: 10 μL detection reagents were added in low light conditions containing nickel chelate acceptor beads and streptavidin donor beads (Perkin Elmer 6760002), resulting in a final concentration 20 ng/ml. Plates were incubated 1 hour and read on a PerkinElmerTM Envision™ plate reader (680 nm excitation and […] settings). The IC50 of each compound was determined by calculating percent inhibition from no drug and no protein controls, and the Ki of each compound was calculated using the Cheng-Prusoff transformation. From the IC50 values were determined. The IC50 values are reported in Table 2 in the CRBN IC50 (nM) column.

[2] = molecular target: Human BTK enzyme, wild-type (Homo sapiens (Human), UniProt Q06187); assay: BTK Screening: Btk kinase activity, electrophoretic mobility shift assay (MSA); assay type: biochemical; conditions: 0.5 nM BTK enzyme, 50 μM ATP, 15 minutes pre-incubation, 3 hours at 25° C.
Procedure: Btk kinase activity was measured in vitro using an electrophoretic mobility shift assay (MSA). The ability of Btk to phosphorylate a fluorescent peptide substrate (FAM-GEEPLYWSFPAKKK-NH2) was measured. The kinase reactions were assembled in a total volume of 25 μL per well in 384 well plates. The following was added to each well: compound buffer (or control); enzyme buffer; and substrate buffer, as further described below.
Specifically the following was added: (1) compound buffer or control: 5μL of 5× compound buffer [(5× compound buffer comprised of: 1× Master Buffer, X μM test compound in 5% dimethyl sulfoxide; (2× Master Buffer comprised of 200 mM HEPES, pH7.5, 0.2% BSA, and 0.02% Triton X-100)]; and (2) enzyme buffer: 10 μL of 2.5× enzyme buffer (1× Master Buffer, 12.5 mM MgCl2, 2.5 mM DTT, 25 μM sodium orthovanadate, 25 μM beta-glycerophosphate, and 1.25 nM BTK enzyme). Human BTK enzyme Nanosyn-293HEK, wild-type, available from Nanosyn, Santa Clara, CA). Enzyme and compound were pre-incubated for 15 minutes. Additionally, the following was added: (3) substrate buffer: 10 μL of 2.5× substrate buffer (1× Master Buffer, […], and 2.5 μM of the peptide substrate FAM). Each plate was incubated at 25° C. for 3 hours. The reaction was terminated by adding to each well: 45 μL of 1.55× stop buffer (1× Master Buffer and 31 mM EDTA). The final reaction mixture was as follows: 100 mM HEPES, pH7.5; 0.1% BSA; 0.01% Triton X-100; 1 mM DTT; 5 mM MgCl2; 10 μM sodium orthovanadate; 10 μM beta-glycerophosphate; 50 μM ATP; 1% dimethyl sulfoxide (from compound); 1μM fluorescent peptide substrate and 0.5 nM BTK- enzyme. The terminated reactions were analyzed using a 12 channel LABCHIP® 3000 microfluidic detection instrument (available from Caliper Life Sciences, Waltham, MA). […] As substrate and product peptides were separated, two peaks of fluorescence were observed. Change in the relative fluorescence intensity of the substrate and product peaks was the parameter measured, reflecting enzyme activity. In the presence of an active compound, the ratio between product and substrate was altered. The signal of the product decreased, while the signal of the substrate increased. Capillary electrophoregrams (RDA acquisition files) were analyzed using HTS Well Analyzer software (available from Caliper Life Sciences, Waltham, MA).
Activity in each sample was determined as the product to sum ratio (PSR): P/(S+P), where P was the peak height of the product peptide and S was the peak height of the substrate peptide. For each compound, enzyme activity was measured at various concentrations (12 concentrations of compound spaced by 3× dilution intervals). Negative control samples (0% inhibition in the absence of an active compound) and positive control samples (100% inhibition, in the presence of 20 mM EDTA) were assembled in replicates of four and were used to calculate % inhibition values for each active compound at each concentration. Percent inhibition (Pinh) was determined using following equation: Pinh=(PSR0%−PSRinh)/(PSR0%−PSR100%)*100, where PSRinh was the product sum ratio in the presence of inhibitor, PSR0% was the average product sum ratio in the absence of active compound and PSR100% was the average product sum ratio in 100%-inhibition control samples.
The IC50 values of active compounds were determined by 4 parameter sigmoidal dose response model fitting of the inhibition curves (Pinh versus inhibitor concentration) using XLfit® 4 software (IDBS, Boston, MA). The IC50 values are reported in Table 2 in the BTK IC50 (nM) column.

| Compound | IC50 [1] | IC50 [2] |
| --- | --- | --- |
| Cc1cc(-c2cc(Nc3ccc(N4CCN(CCc5ccc(N6CCC(=O)NC6=O)c(F)c5)C[C@@H]4C)cn3)ncn2)ccc1[C@@H](C)NC(=O)c1nc(C(C)(C)C)no1 [Example 4, 3-tert-butyl-N-[(1R)-1-{4-[6-({5-[(2S)-4-{2-[4-(2,4-dioxo-1,3-diazinan-1-yl)-3-fluorophenyl]ethyl}-2-methylpiperazin-1-yl]pyridin-2-yl}amino)pyrimidin-4-yl]-2-methylphenyl}ethyl]-1,2,4-oxadiazole-5-carboxamide] | ≥ 10000 nM | 0.141 nM |
| Cc1cc(-c2cc(Nc3ccc(N4CCN(CCc5ccc(N6CCC(=O)NC6=O)c(F)c5)C[C@H]4C)cn3)ncn2)ccc1[C@@H](C)NC(=O)c1nc(C(C)(C)C)no1 [Example 5, 3-tert-butyl-N-[(1R)-1-{4-[6-({5-[(2R)-4-{2-[4-(2,4-dioxo-1,3-diazinan-1-yl)-3-fluorophenyl]ethyl}-2-methylpiperazin-1-yl]pyridin-2-yl}amino)pyrimidin-4-yl]-2-methylphenyl}ethyl]-1,2,4-oxadiazole-5-carboxamide] | 648 nM | 0.113 nM |
| CC[C@H]1CN(CCc2ccc(N3CCC(=O)NC3=O)cc2)CCN1c1ccc(Nc2cc(-c3ccc([C@@H](C)NC(=O)c4nc(C(C)(C)C)no4)c(C)c3)ncn2)nc1 [Example 6, 3-tert-butyl-N-[(1R)-1-{4-[6-({5-[(2S)-4-{2-[4-(2,4-dioxo-1,3-diazinan-1-yl)phenyl]ethyl}-2-ethylpiperazin-1-yl]pyridin-2-yl}amino)pyrimidin-4-yl]-2-methylphenyl}ethyl]-1,2,4-oxadiazole-5-carboxamide] | 378 nM | 0.0403 nM |
| CC[C@H]1CN(CCc2ccc(N3CCC(=O)NC3=O)c(F)c2)CCN1c1ccc(Nc2cc(-c3ccc([C@@H](C)NC(=O)c4nc(C(C)(C)C)no4)c(C)c3)ncn2)nc1 [Example 7, 3-tert-butyl-N-[(1R)-1-{4-[6-({5-[(2S)-4-{2-[4-(2,4-dioxo-1,3-diazinan-1-yl)-3-fluorophenyl]ethyl}-2-ethylpiperazin-1-yl]pyridin-2-yl}amino)pyrimidin-4-yl]-2-methylphenyl}ethyl]-1,2,4-oxadiazole-5-carboxamide] | 609 nM | 0.0979 nM |
| Cc1cc(-c2cc(Nc3ccc(N4CCN(CCc5ccc(N6CCC(=O)NC6=O)cc5)CC4(C)C)cn3)ncn2)ccc1[C@@H](C)NC(=O)c1nc(C(C)(C)C)no1 [Example 9, 3-tert-butyl-N-{(1R)-1-[4-(6-{[5-(4-{2-[4-(2,4-dioxo-1,3-diazinan-1-yl)phenyl]ethyl}-2,2-dimethylpiperazin-1-yl)pyridin-2-yl]amino}pyrimidin-4-yl)-2-methylphenyl]ethyl}-1,2,4-oxadiazole-5-carboxamide] | 658 nM | 0.0988 nM |
| Cc1cc(-c2cc(Nc3ccc(N4CCN(CCc5ccc(N6CCC(=O)NC6=O)cc5)C[C@@H]4C(C)C)cn3)ncn2)ccc1[C@@H](C)NC(=O)c1nc(C(C)(C)C)no1 [Example 13, 3-tert-butyl-N-[(1R)-1-{4-[6-({5-[(2S)-4-{2-[4-(2,4-dioxo-1,3-diazinan-1-yl)phenyl]ethyl}-2-(propan-2-yl)piperazin-1-yl]pyridin-2-yl}amino)pyrimidin-4-yl]-2-methylphenyl}ethyl]-1,2,4-oxadiazole-5-carboxamide] | ≥ 10000 nM | 0.14 nM |
| C[C@@H](NC(=O)c1nc(C(C)(C)C)no1)c1ccc(-c2cc(Nc3ccc(N4CCN(CCc5ccc(N6CCC(=O)NC6=O)cc5)C[C@@H]4C)cn3)ncn2)cc1Cl [Example 14, 3-tert-butyl-N-[(1R)-1-{2-chloro-4-[6-({5-[(2S)-4-{2-[4-(2,4-dioxo-1,3-diazinan-1-yl)phenyl]ethyl}-2-methylpiperazin-1-yl]pyridin-2-yl}amino)pyrimidin-4-yl]phenyl}ethyl]-1,2,4-oxadiazole-5-carboxamide] | 2330 nM | 0.053 nM |

Second part, the compound after the results:

| IC50 [1] | IC50 [2] | Compound |
| --- | --- | --- |
| 1260 nM | 0.0977 nM | Cc1cc(-c2cc(Nc3ccc(N4CCN(CCc5ccc(N6CCC(=O)NC6=O)cc5)C[C@@H]4C)cn3)ncn2)ccc1[C@@H](C)NC(=O)c1nc(C(C)(C)C)no1 [Example 1, 3-tert-butyl-N-[(1R)-1-{4-[6-({5-[(2S)-4-{2-[4-(2,4-dioxo-1,3-diazinan-1-yl)phenyl]ethyl}-2-methylpiperazin-1-yl]pyridin-2-yl}amino)pyrimidin-4-yl]-2-methylphenyl}ethyl]-1,2,4-oxadiazole-5-carboxamide] |
| 749 nM | 0.128 nM | Cc1cc(-c2cc(Nc3ccc(N4CCN(CCc5ccc(N6CCC(=O)NC6=O)cc5)C[C@H]4C)cn3)ncn2)ccc1[C@@H](C)NC(=O)c1nc(C(C)(C)C)no1 [Example 2, 3-tert-butyl-N-[(1R)-1-{4-[6-({5-[(2R)-4-{2-[4-(2,4-dioxo-1,3-diazinan-1-yl)phenyl]ethyl}-2-methylpiperazin-1-yl]pyridin-2-yl}amino)pyrimidin-4-yl]-2-methylphenyl}ethyl]-1,2,4-oxadiazole-5-carboxamide] |
| 9570 nM | 0.0339 nM | Cc1cc(-c2cc(Nc3ccc(N4CCN(CCc5ccc(N6CCC(=O)NC6=O)cc5)CC4)cn3)ncn2)ccc1[C@@H](C)NC(=O)c1nc(C(C)(C)C)no1 [Example 3, 3-tert-butyl-N-{(1R)-1-[4-(6-{[5-(4-{2-[4-(2,4-dioxo-1,3-diazinan-1-yl)phenyl]ethyl}piperazin-1-yl)pyridin-2-yl]amino}pyrimidin-4-yl)-2-methylphenyl]ethyl}-1,2,4-oxadiazole-5-carboxamide] |
| 3380 nM | 0.0804 nM | CC[C@@H]1CN(CCc2ccc(N3CCC(=O)NC3=O)cc2)CCN1c1ccc(Nc2cc(-c3ccc([C@@H](C)NC(=O)c4nc(C(C)(C)C)no4)c(C)c3)ncn2)nc1 [Example 8, 3-tert-butyl-N-[(1R)-1-{4-[6-({5-[(2R)-4-{2-[4-(2,4-dioxo-1,3-diazinan-1-yl)phenyl]ethyl}-2-ethylpiperazin-1-yl]pyridin-2-yl}amino)pyrimidin-4-yl]-2-methylphenyl}ethyl]-1,2,4-oxadiazole-5-carboxamide] |
| 2010 nM | 0.0363 nM | Cc1cc(-c2cc(Nc3ccc(N4CCN(CCc5ccc(N6CCC(=O)NC6=O)cc5)CC4)cn3)ncn2)c(F)cc1[C@@H](C)NC(=O)c1nc(C(C)(C)C)no1 [Example 12, 3-tert-butyl-N-{(1R)-1-[4-(6-{[5-(4-{2-[4-(2,4-dioxo-1,3-diazinan-1-yl)phenyl]ethyl}piperazin-1-yl)pyridin-2-yl]amino}pyrimidin-4-yl)-5-fluoro-2-methylphenyl]ethyl}-1,2,4-oxadiazole-5-carboxamide] |
